Source: patent publication US11590116B2 (THERAVANCE BIOPHARMA R&D IP, LLC, priority 2019, dated 2023)

Key:
[1] = test system: TGF-β-stimulated SMAD3 phosphorylation in BEAS-2B cells; assay: Cellular ALK5 potency assay, inhibition of TGF-β stimulated pSMAD3 formation in BEAS-2B cells; type: cell-based; conditions: Homo sapiens; inhibition of TGF-β stimulated pSMAD3 formation, BEAS-2B cells; read-out: BEAS2B pIC50 (converted)
Procedure: The potency of compounds of the present disclosure for inhibition of TGF-β-stimulated SMAD3 phosphorylation was measured in BEAS-2B cells, a human lung epithelial cell line. TGF-β signals through activin receptor-like kinase 5 (ALK5) immediately prior to SMAD3 phosphorylation.
BEAS-2B cells were grown using 50% DMEM (Life Technologies) and 50% F-12 (Life Technologies) media, supplemented with 10% Fetal Bovine Serum (ATCC), 25 mM HEPES (Life Technologies), and 1× Pen-Strep (Life Technologies). Cells were cultured in a humidified incubator set at 37° C., 5% CO2, and trypsonized using 0.25% Trypsin with 0.5% polyvinylpyrrolidone (PVP).
For the assay, BEAS-2B cells were seeded at 7,500 cells/well (25 μL/well) in a 384-well plate and cultured overnight. Before dosing, growth media was aspirated and the wells were rinsed with HBSS Buffer (HBSS with Calcium and Magnesium, Life Technologies) supplemented with 25 mM HEPES (Life Technologies) and 1% Bovine Serum Albumin (Roche). Compounds were serially diluted in DMSO, then further diluted with supplemented HBSS Buffer (50 μL/well) to create a compound plate 3× of the final assay concentration, at 0.3% DMSO. The diluted compounds were then added to the cells (8 μL/well) and incubated at 37° C., 5% CO2 for 1 hour. After the compound incubation, TGF-β (R&D Systems) reconstituted in supplemented HBSS Buffer was added to the cells ([…], final concentration 10 ng/mL) and incubated for a further 30 minutes, after which the cells were immediately lysed with AlphaLISA lysis buffer (PerkinElmer). AlphaLISA Acceptor and Detector beads (PerkinElmer) were added 2 hours apart, then incubated overnight to be read the next day. The potency of the compound was determined through analysis of dose-dependent quantified changes in pSMAD3 signal from baseline (non-compound treated TGF-β stimulated cells). Data are expressed as pIC50 (negative decadic logarithm IC50) values.

[2] = molecular target: T1, recombinant human ALK5 (TGF-βR1) protein (Homo sapiens, UniProt P36897); assay: Biochemical ALK5 (TGF-βR1) assay to measure pKi (LANCE Ultra ULight kinase assay); conditions: apparent pKi from pIC50 by Cheng-Prusoff, read-out: ALK5 pKi (converted)
T1 construct: purchased Life Technologies PR9075A
T1 sequence (P36897 34-503): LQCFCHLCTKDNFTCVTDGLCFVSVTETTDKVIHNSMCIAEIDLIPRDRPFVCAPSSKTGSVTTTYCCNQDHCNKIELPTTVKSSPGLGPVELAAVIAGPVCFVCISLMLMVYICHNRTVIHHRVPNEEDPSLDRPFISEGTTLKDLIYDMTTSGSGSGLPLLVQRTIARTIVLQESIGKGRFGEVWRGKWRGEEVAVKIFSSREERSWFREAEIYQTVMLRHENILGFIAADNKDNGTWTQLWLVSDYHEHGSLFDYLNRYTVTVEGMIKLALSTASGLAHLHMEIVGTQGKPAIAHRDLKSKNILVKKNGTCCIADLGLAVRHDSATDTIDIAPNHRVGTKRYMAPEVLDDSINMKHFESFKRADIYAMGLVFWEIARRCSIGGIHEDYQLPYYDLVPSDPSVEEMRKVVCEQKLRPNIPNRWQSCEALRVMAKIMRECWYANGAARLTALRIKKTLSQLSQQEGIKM
Procedure: The assays were performed in a 384-well plate (24 columns×16 wells/rows). An Echo® 550 Liquid Handler (Labcyte) was used to prepare various intermediate concentrations of compounds of the present disclosure in 100% DMSO. From the intermediate concentrations, a range of concentrations (from 10 μM to 25 pM corresponding to volumes up to 105 nL) were prepared and ejected into a final assay plate to be used to create individual dose response curves for each of the subject compounds. To a separate column within the assay plate, 105 nL of DMSO in each well was used to establish a maximum assay signal.
With a multidrop dispenser, 8 μL of enzyme mixture (1.25× final) was added to each well. […] The plate was then sealed with an adhesive seal and allowed to equilibrate for 60 minutes at room temperature.
Next, 2 μL of 125 μM ATP (5× final, 125 μM ATP prepared in assay buffer with 2 mM DTT) was added to the incubated mixtures, covered with a MicroClime® Environmental Lid (Product No. LLS-0310, Labcyte) and immediately transferred to 37° C. The reactions were allowed to proceed at 37° C. for 60 minutes before terminating with the addition of 10 μL of detection antibody (LANCE® (lanthanide chelate excite) Ultra Europium-anti-phospo-DNA Topoisomerase 2-alpha (Thr1342)) in detection mixture (12 mM EDTA, 4 nM detection antibody prepared in detection buffer (50 mM Tris-HCl, 150 mM NaCl, 0.5% BSA (Fraction V), pH 7.0)) at room temperature. The plate was then read on a Perkin Elmer EnVision Plate Reader using europium specific reader settings with excitation and emission wavelengths set to 320 or 340 nm and 665 nm, respectively.
For dose-response analyses, percent inhibition versus compound concentrations were plotted, and pIC50 values were determined from a 4-parameter robust fit model with GraphPad Prism V5 Software (GraphPad Software, Inc., La Jolla, Calif.). This model obtains pIC50 values by fitting the sigmoidal dose-response (variable slope) equation to the data. Results were expressed as pIC50 (negative logarithm of IC50) and subsequently converted to pKi (negative logarithm of dissociate constant, K) using the Cheng-Prusoff equation. The higher the value of pKi (lower value of Ki), the greater the inhibition of ALK5 activity.

| Ki [2] [nM] | Structure (SMILES) | IC50 [1] [nM] |
| --- | --- | --- |
| 0.0398 to 0.316 | Cc1cccc(-c2n[nH]cc2-c2ccc3ncc(N4CCCN(C)CC4)cc3n2)n1 [Compound 144, 7-(4-methyl-1,4-diazepan-1-yl)-2-[3-(6-methyl-2-pyridyl)-1H-pyrazol-4-yl]-1,5-naphthyridine] | 25.1 to 158 |
| 0.0398 to 0.316 | Cc1cccc(-c2[nH]cnc2-c2ccc3ncc(-c4ccc(C(=O)O)cc4)cc3c2)n1 [Compound 145, 4-[6-[5-(6-methyl-2-pyridyl)-1H-imidazol-4-yl]-3-quinolyl]benzoic acid] | 200 to 1260 |
| 3.98 to 31.6 | CCOC(=O)CCN(C)c1cnc2ccc(-c3c[nH]nc3-c3cccc(C)n3)nc2c1 [Compound 601, ethyl 3-[methyl-[6-[3-(6-methyl-2-pyridyl)-1H-pyrazol-4-yl]-1,5-naphthyridin-3-yl]amino]propanoate] | 200 to 1260 |
| 0.0398 to 0.316 | Cc1cccc(-c2n[nH]cc2-c2ccc3ncc(-c4c(C)nn(C)c4C)cc3n2)n1 [Compound 426, 2-[3-(6-methyl-2-pyridyl)-1H-pyrazol-4-yl]-7-(1,3,5-trimethylpyrazol-4-yl)-1,5-naphthyridine] | 25.1 to 158 |
| 0.0398 to 0.316 | Cc1cccc(-c2[nH]cnc2-c2ccc3ncc(N4CCC(C(=O)O[C@@H]5CCN(C)C5)CC4)cc3c2)n1 [Compound 702, [(3R)-1-methylpyrrolidin-3-yl] 1-[6-[5-(6-methyl-2-pyridyl)-1H-imidazol-4-yl]-3-quinolyl]piperidine-4-carboxylate] | 25.1 to 158 |
| 0.0398 to 0.316 | Cc1cccc(-c2[nH]cnc2-c2ccc3ncc(C(=O)OCCN4CCC5(CCNCC5)C4)cc3c2)n1 [Compound 896, 2-(2,8-diazaspiro[4.5]decan-2-yl)ethyl 6-(5-(6-methylpyridin-2-yl)-1H-imidazol-4-yl)quinoline-3-carboxylate] | 200 to 1260 |
| 0.398 to 3.16 | Cc1cccc(-c2[nH]cnc2-c2ccc3ncc(N4CCNC(CC(=O)OC5CCNCC5)C4)cc3c2)n1 (stereo not shown) [Compound 689, 4-piperidyl 2-[4-[6-[5-(6-methyl-2-pyridyl)-1H-imidazol-4-yl]-3-quinolyl]piperazin-2-yl]acetate] | 200 to 1260 |
| 0.0398 to 0.316 | Cc1cccc(-c2[nH]cnc2-c2ccc3ncc(Nc4cnn(CCC5CCNCC5)c4)cc3c2)n1 [Compound 667, 6-[5-(6-methyl-2-pyridyl)-1H-imidazol-4-yl]-N-[1-[2-(4-piperidyl)ethyl]pyrazol-4-yl]quinolin-3-amine] | 200 to 1260 |
| 0.398 to 3.16 | CC(=O)Oc1ccnc2ccc(-c3c[nH]nc3-c3cccc(C)n3)nc12 [Compound 857, [6-[3-(6-methyl-2-pyridyl)-1H-pyrazol-4-yl]-1,5-naphthyridin-4-yl]acetate] | 25.1 to 158 |
| 0.0398 to 0.316 | Cc1cccc(-c2[nH]cnc2-c2ccc3ncc(C(=O)OCCN4CC5(CCNCC5)C4)cc3c2)n1 [Compound 891, 2-(2,7-diazaspiro[3.5]nonan-2-yl)ethyl 6-(5-(6-methylpyridin-2-yl)-1H-imidazol-4-yl)quinoline-3-carboxylate] | 200 to 1260 |
| 0.0398 to 0.316 | Cc1cccc(-c2[nH]cnc2-c2ccc3ncc(Nc4ccc(N5CCN(C(C)C)CC5)cn4)cc3n2)n1 [Compound 695, N-[5-(4-isopropylpiperazin-1-yl)-2-pyridyl]-6-[5-(6-methyl-2-pyridyl)-1H-imidazol-4-yl]-1,5-naphthyridin-3-amine] | 25.1 to 158 |

The remaining lines, values behind:

| Structure (SMILES) | Ki [2] [nM] | IC50 [1] [nM] |
| --- | --- | --- |
| Cc1cccc(-c2[nH]cnc2-c2ccc3ncc(-c4ncc(C(=O)OCC5CNC5)cn4)cc3c2)n1 [Compound 1144, azetidin-3-ylmethyl 2-[6-[5-(6-methyl-2-pyridyl)-1H-imidazol-4-yl]-3-quinolyl]pyrimidine-5-carboxylate] | 0.0398 to 0.316 | 25.1 to 158 |
| Cc1cccc(-c2[nH]ncc2-c2ccc3ncc(C(=O)OC[C@H]4CCCNC4)cc3c2)n1 [Compound 1230, [(3S)-3-piperidyl]methyl 6-[5-(6-methyl-2-pyridyl)-1H-pyrazol-4-yl]quinoline-3-carboxylate] | 0.0398 to 0.316 | 25.1 to 158 |
| Cc1cccc(-c2[nH]cnc2-c2ccc3ncc(-c4cnc5c(c4)CCNC5)cc3c2)n1 [Compound 721, 3-[6-[5-(6-methyl-2-pyridyl)-1H-imidazol-4-yl]-3-quinolyl]-5,6,7,8-tetrahydro-1,7-naphthyridine] | 0.0398 to 0.316 | 25.1 to 158 |
| Cc1nc(-c2nc3ccccn3c2-c2ccc3ncc(N4CCC(N5CCN(C)CC5)CC4)cc3n2)ccc1F [Compound 47, 2-[2-(5-fluoro-6-methyl-2-pyridyl)imidazo[1,2-a]pyridin-3-yl]-7-[4-(4-methylpiperazin-1-yl)-1-piperidyl]-1,5-naphthyridine] | 0.0398 to 0.316 | 200 to 1260 |
| CNCCn1cc(-c2cnc3ccc(-c4c(-c5cccc(C)n5)nn5c4CNCC5)nc3c2)cn1 [Compound 64, N-methyl-2-[4-[6-[2-(6-methyl-2-pyridyl)-4,5,6,7-tetrahydropyrazolo[1,5-a]pyrazin-3-yl]-1,5-naphthyridin-3-yl]pyrazol-1-yl]ethanamine] | 0.0398 to 0.316 | 200 to 1260 |
| CNC1CCN(c2cnc3ccc(-c4c(-c5cccc(C)n5)[nH]c5cccnc45)nc3c2)CC1 [Compound 328, N-methyl-1-[6-[2-(6-methyl-2-pyridyl)-1H-pyrrolo[3,2-b]pyridin-3-yl]-1,5-naphthyridin-3-yl]piperidin-4-amine] | 0.398 to 3.16 | 200 to 1260 |
| Cc1cccc(-c2nc3ccccn3c2-c2ccc3ncc(-c4cnn(CCN)c4)cc3n2)n1 [Compound 660, 2-[4-[6-[2-(6-methyl-2-pyridyl)imidazo[1,2-a]pyridin-3-yl]-1,5-naphthyridin-3-yl]pyrazol-1-yl]ethanamine] | 0.0398 to 0.316 | 25.1 to 158 |
| Cc1nc(-c2n[nH]cc2-c2ccc3ncc(-c4cn5c(n4)CNCC5)cc3n2)ccc1F [Compound 422, 2-[3-(5-fluoro-6-methyl-2-pyridyl)-1H-pyrazol-4-yl]-7-(5,6,7,8-tetrahydroimidazo[1,2-a]pyrazin-2-yl)-1,5-naphthyridine] | < 0.0316 | 25.1 to 158 |
| Cc1cccc(-c2[nH]cnc2-c2ccc3ncc(N4CCNC(CC(=O)OC(C)C)C4)cc3c2)n1 (stereo not shown) [Compound 24, isopropyl 2-[4-[6-[5-(6-methyl-2-pyridyl)-1H-imidazol-4-yl]-3-quinolyl]piperazin-2-yl]acetate] | 0.0398 to 0.316 | 25.1 to 158 |
